# Experiment: Superoxide anion radical scavenging activity (PMS/NADPH/NBT)
# Assay type: biochemical
# Details: 100 μM (stated for compound 3)
# Method: The compounds have been tested to scavenge superoxide anion radicals. However, no results were recorded under the experimental conditions.
# The superoxide anion producing system was set up by mixing PMS, NADPH, and air oxygen. The production of superoxide anion was estimated by the nitrobluetetrazole NBT method. The reaction mixture containing compounds, 3 μM PMS, 78 μM NADPH, and 25 μM NBT in […] phosphate buffer pH 7.4 was incubated for 2 min at room temperature and the absorption was measured at 560 nm against a blank containing PMS. The tested compounds were pre-incubated for 2 min before adding NADPH. Caffeic acid was used as an appropriate standard (76%).
structure (smiles),measurement,value
"O=C(O)/C=C/c1ccc(O)c(O)c1 [Caffeic acid, reference compound]",superoxide anion scavenging activity,76%
